The subject of this series is HUVECs. The series can be described thus: Cytotoxicity of [Rull(bpy)3]^2+ on HUVECs (MTT assay). It counts as cell-based, human. The method, then: FIG. 3 is a graph illustrative of the effect of [Rull(bpy)3]^2+ concentration on the viability of HUVECs. Absorbance of the MTT assay was determined at 490 nm.
HUVECs (CRL-2873™) thawed from cryopreservation was cultured in Endogro Supplement medium kit (Millipore) supplemented with 1% penicillin streptomycin. Cells were recovered from tissue culture dishes/T25 flask with 0.05% trypsin-ethylenediaminetetraacetic acid (EDTA) in PBS. The cells were routinely passaged at 1/5 confluency. All cells were incubated at 37° C. in a humidified, 5% CO2 atmosphere.

`[Cl-].[Cl-].[Ru+2].c1ccc(-c2ccccn2)nc1.c1ccc(-c2ccccn2)nc1.c1ccc(-c2ccccn2)nc1` [[Rull(bpy)3]^2+, ruthenium II trisbipyridyl chloride [RuII(bpy)3]^2+]: the “safe range of [Rull(bpy)3]^2+ concentrations” value (HUVECs, MTT assay, absorbance at 490 nm) was in the range of 0.5 to 3.5 mM. Moreover, where the note is “higher [Rull(bpy)3]^2+ concentration than the safe range, lower absorbance at 490 nm”, the “viability of HUVECs” value was “reduce the viability of HUVECs”.

These data come from patent publication US20130203146A1, “MICROFABRICATED SCAFFOLD STRUCTURES” (priority 2010, published 2013).
